Measured values published in article PMC5444710, “Enhancement of radiosensitivity by the novel anticancer quinolone derivative vosaroxin in preclinical glioblastoma models” (Oncotarget, 2017).

Experiments:
[1] = tested on: P-glycoprotein drug pumps; parameters: method as in PMID 23688047; conditions: cited from earlier work
[2] = tested on: luciferase-transfected U251 cells; assay: Orthotopic intra-brain model (DFS, OS)
beclin-1 = assay: Beclin-1 expression (Western blot and ELISA); assay type: cell-based, human; conditions: after vosaroxin treatment at IC20; U87MG, U251, T98G
Description: Cells grown in 90 mm diameter Petri dishes were treated and at various timepoints were washed with cold phosphate-buffered saline (PBS) and immediately lysed with 1 mL radioimmunoprecipitation assay (RIPA) buffer containing protease and phosphatase inhibitor cocktail. Total lysates were electrophoresed in SDS-PAGE (7%), and separated proteins transferred to nitrocellulose and probed with the appropriate antibodies using the conditions recommended by the suppliers. Protein levels in total extracts were normalized to actin. After appropriate treatments, tumor cell cultures and tissues were harvested for analysis of cytokine expression. Cell pellets were washed with PBS and lysed with RIPA buffer. Cell lysates and conditioned media were assayed by ELISA to measure (i) active human caspase-3 (CBA045, Merck Chemicals Ltd., Nottingham, UK), (ii) beclin-1 (E98557Hu, USCN Life Sciences, Houston, TX, USA), and (iii) DNA damage (EpiQuik in situ DNA Damage Assay Kit, Epigentek, Farmingdale, NY, USA).

[3] = tested on: U87MG, U251, and T98G xenografts; assay: iNOS and arginase-1 expression in xenograft tissue extracts; assay type: in vivo, female CD1-nu/nu mice; conditions: tissue extracts from U87MG
Description: (§1) After appropriate treatments, tumor cell cultures and tissues were harvested for analysis of cytokine expression. Cell pellets were washed with PBS and lysed with RIPA buffer. Cell lysates and conditioned media were assayed by ELISA to measure (i) active human caspase-3 (CBA045, Merck Chemicals Ltd., Nottingham, UK), (ii) beclin-1 (E98557Hu, USCN Life Sciences, Houston, TX, USA), and (iii) DNA damage (EpiQuik in situ DNA Damage Assay Kit, Epigentek, Farmingdale, NY, USA). Tumor extracts were analyzed for the presence of:
(§2) • MMP-2 (KHC3081) • TNF-α (KHC3011, Life Technologies Italia, Monza, Italy) • CXCR4 (Cyto Glow CXCR4 [pSer339], cell-based ELISA, Assay Biotech, Sunnyvale, CA, USA) • Human Fas ligand (ELH-FASL, RayBiotech, Norcross, GA, USA) • IL-6 (orb50052) and survivin (orb50135) (Biorbyt) • TGF-β1 (Quantikine ELISA Kit, DB100B, R&D Systems, Minneapolis, MN, USA) • SDF-1α (Human CXCL12/SDF-1α Quantikine ELISA Kit, DSA00, R&D Systems) • Mouse IL-10 DuoSet ELISA DY417 (R&D Systems Minneapolis, MN, USA) • Mouse NOS2 / iNOS ELISA Kit (Sandwich ELISA) - LS-F12166 (LifeSpan Biosciences, Inc, Seattle, WA, USA) • Mouse ARG1 / Arginase-1 ELISA Kit (Sandwich ELISA) - LS-F10883 (LifeSpan Biosciences, Inc, Seattle, WA, USA)

U251 xenografts = assay: Cytokine expression in xenograft tissue extracts (ELISA); assay type: in vivo, female CD1-nu/nu mice; conditions: U251 xenograft tissue extract
Description: as §1, §2
(§3) All determinations were performed in triplicate, according to manufacturers’ instructions. Data are presented as mean ± SE. Cytokine secretion determined by ELISA was normalized to total protein concentration in tissue lysates.

T98G xenografts = assay: as above; assay type: in vivo, female CD1-nu/nu mice; conditions: T98G xenograft tissue extract
Description: as §1, §2, §3

U87MG xenografts = assay: as above; assay type: in vivo, female CD1-nu/nu mice; conditions: U87MG xenograft tissue extract
Description: as §1, §2, §3

T98G cells = assay: Clonogenic survival assay; assay type: cell-based, human
Description: (§4) For clonogenic survival assays, exponentially growing cells (70% confluence) were cultured in regular media and treated with vosaroxin, at the appropriate concentrations, or vehicle (final dimethyl sulfoxide concentration of 0.1%) for 48 hours. Tumor cells were then irradiated at room temperature with increasing doses of radiation (0–6 Gy) using an x-ray linear accelerator (dose rate of 200 cGy/min). Nonirradiated controls were handled identically to the irradiated cells with the exception of the radiation exposure. […] […] Colonies containing more than 50 cells were counted. The plating efficiency was calculated as the number of colonies observed divided by the number of cells plated. The surviving fraction was calculated as the number of colonies formed in the treated dishes compared with the number formed in the control. The survival curves were analyzed using SPSS statistical software (Chicago, IL, USA) by means of a fit of the data by a weighted, stratified, linear regression, according to the linear-quadratic formula: S(D)/S(O) = exp-(αD + βD2). The cell survival enhancement ratio was calculated as the ratio of the mean inactivation dose under control conditions divided by the mean inactivation dose after treatment as previously described.

U87MG cells = assay: Clonogenic survival assay; assay type: cell-based, human
Description: as §4

A172 cells = assay: Clonogenic survival assay; assay type: cell-based, human
Description: as §4

U251 cells = assay: Clonogenic survival assay; assay type: cell-based, human
Description: as §4

[4] = concentration equal to IC20, analyzed at 21 days of culture
[5] = irradiated 2, 4, 6 Gy 48 hours after drug exposure, calculated at a surviving fraction of 0.10

Q: With CN[C@H]1CN(c2ccc3c(=O)c(C(=O)O)cn(-c4nccs4)c3n2)C[C@@H]1OC [vosaroxin] as the compound, how does the “substrate for P-glycoprotein drug pumps” value [1] read?
A: not a substrate

Q: And the “Disease-free Survival HR (95% CI)” value ([2]; VSR vs TMZ + RT)?
A: 1.2 (0.4–3.2)

Q: And the “Overall Survival HR (95% CI)” value ([2]; VSR vs TMZ + RT)?
A: 1.5 (0.5–3.0)

Q: And the “Disease-free Survival HR (95% CI)” value ([2]; VSR vs VSR + RT)?
A: 2.4 (1.1–8.8)

Q: What about the “Overall Survival HR (95% CI)” value ([2]; VSR vs VSR + RT) of the same compound?
A: 4.5 (2.2–22.5)

Q: And the “mean time of recurrence (DFS) ± SE” value ([2]; orthotopic U251-luciferase, treated for 35 days starting 5 days after cell injection)?
A: 70.5 ± 7.3 days

Q: What about the “RT-induced levels of beclin-1” value (beclin-1) of the same compound?
A: significantly reduced

Q: What about the “arginase-1 expression (M2 marker)” value [3] of the same compound?
A: low expression

Q: What about the “iNOS expression (M1 marker)” value [3] of the same compound?
A: high expression

Q: What about the “Human IL-6” value (U251 xenografts) of the same compound?
A: 33 ± 8 pg/mg tissue

Q: And the “Human TGF-β1” value (U251 xenografts)?
A: 35 ± 6

Q: What about the “Human TNF-α” value (U251 xenografts) of the same compound?
A: 7 ± 1 pg/mg tissue

Q: And the “Human and mouse IL-8” value (U251 xenografts)?
A: 275 ± 35 pg/mg tissue

Q: And the “Mouse IL-1β” value (U251 xenografts)?
A: 44 ± 5 pg/mg tissue

Q: What about the “Mouse IL-10” value (U251 xenografts) of the same compound?
A: 5.2 ± 0.6

Q: What about the “Mouse SDF-1α” value (U251 xenografts) of the same compound?
A: 32 ± 3

Q: What about the “Human IL-6” value (T98G xenografts) of the same compound?
A: 30 ± 3 pg/mg tissue

Q: And the “Human TGF-β1” value (T98G xenografts)?
A: 27 ± 3

Q: And the “Human TNF-α” value (T98G xenografts)?
A: 3 ± 1 pg/mg tissue

Q: What about the “Human and mouse IL-8” value (T98G xenografts) of the same compound?
A: 440 ± 30 pg/mg tissue

Q: What about the “Mouse IL-1β” value (T98G xenografts) of the same compound?
A: 27 ± 4 pg/mg tissue

Q: And the “Mouse IL-10” value (T98G xenografts)?
A: < 1.0

Q: What about the “Mouse SDF-1α” value (T98G xenografts) of the same compound?
A: 12 ± 4

Q: What about the “Human IL-6” value (U87MG xenografts) of the same compound?
A: 78 ± 13 pg/mg tissue

Q: What about the “Human TGF-β1” value (U87MG xenografts) of the same compound?
A: 47 ± 8

Q: What about the “Human TNF-α” value (U87MG xenografts) of the same compound?
A: 17 ± 3 pg/mg tissue

Q: What about the “Human and mouse IL-8” value (U87MG xenografts) of the same compound?
A: 715 ± 37 pg/mg tissue

Q: What about the “Mouse IL-1β” value (U87MG xenografts) of the same compound?
A: 85 ± 10 pg/mg tissue

Q: And the “Mouse IL-10” value (U87MG xenografts)?
A: 6.2 ± 0.5

Q: What about the “Mouse SDF-1α” value (U87MG xenografts) of the same compound?
A: 18 ± 3

Q: What about the “surviving fraction, vosaroxin alone” value (T98G cells; [4]) of the same compound?
A: 0.84 ± 0.036

Q: And the dose enhancement factor (T98G cells; [5])?
A: 1.40

Q: What about the “surviving fraction, vosaroxin alone” value (U87MG cells; [4]) of the same compound?
A: 0.77 ± 0.18

Q: What about the dose enhancement factor (U87MG cells; [5]) of the same compound?
A: 1.55

Q: What about the “surviving fraction, vosaroxin alone” value (A172 cells; [4]) of the same compound?
A: 0.87 ± 0.18

Q: What about the dose enhancement factor (A172 cells; [5]) of the same compound?
A: 1.24

Q: And the “surviving fraction, vosaroxin alone” value (U251 cells; [4])?
A: 0.80 ± 0.064

Q: And the dose enhancement factor (U251 cells; [5])?
A: 1.33
